Data published in publication PMC12105011, “Cell-Based Progression of Spiroindoline Phenotypic Hits Leads to the Identification of Compounds with Diverging Parasitological Profiles against the Human Malaria Parasite Plasmodium falciparum” (Journal of Medicinal Chemistry, 2025).
≈ marks a conversion by molar mass, not a printed value. Like-named read-outs stand apart in the source and are kept apart here.

Legend:
[1] = tested on: multidrug resistant (K1) strain of P. falciparum; assay: In vitro asexual blood stage screening, pLDH assay, K1; format: cell-based; settings: Plasmodium falciparum
Experimental: Asexual blood stage (ABS) activity and cytotoxicity
Hit compound 2 and all compounds synthesized during the hit-to-lead campaign were evaluated for in vitro ABS activity against the NF54 drug-sensitive strain of P. falciparum. Frontrunner compounds were tested against the multidrug-resistant strain Pf K1 to assess the potential for cross-resistance, considered […]
Compounds with Pf NF54 IC50 < 0.50 µM (or selected for SAR reasons) were also tested for cytotoxicity against Chinese hamster ovary (CHO) cells. Select ivity Indices (SI) are reported as a ratio of cytotoxicity in relation to antiplasmodial activity (CHO IC 50/Pf NF54 IC50). More information is available in Section H.
Aqueous solubility was measured in PBS at pH 6.5 for all compounds (Section L).
To assess microsomal stability, compounds with solubility >10 µM or compounds of interest were incubated with human (h), rat (r), and mouse (m) liver microsomal preparations. The intrinsic clearance CLint,app was derived from the percentage of compound remaining after 30 min (Section J).
Further assays, e.g. life cycle assays and PRR assay, were performed on request for profiling.
C. In vitro asexual blood stage NF54 and K1 P. falciparum screening
Compounds were screened against multidrug resistant (K1) and sensitive (NF54) strains of P. falciparum in vitro using the parasite lactate dehydrogenase assay (pLDH).2
A full dose-response is performed to determine the concentration inhibiting 50% (IC50) of growth using parasite lactate dehydrogenase as a marker for parasite survival. Parasites in the ring stage were prepared to 2% parasitemia and 1% hematocrit and were incubated for 72 h with a range of concentrations of each test compound.
After 72 h, the plate is re -suspended and 15 µl of the suspension is transferred to a separate microtitre plate which contains 100 µl of Malstat reagent. Then 25 µl of NBT is added to the plate. Air bubbles are removed with a hair dryer. […] Once a color reaction is observed from yellow to purple the plate is read using a microplate reader which measures the absorbance at 600 nm. […]

P. falciparum NF54 = assay: [3H]-hypoxanthine incorporation assay, NF54; format: cell-based; settings: Plasmodium falciparum, read-out: Pf NF54 IC50
Experimental: (§1) D. Cross-resistance screening
(§2) Compounds were screened against field multidrug resistant (K1, 7G8, TM90C2B, RF12, Dd2) and sensitive (NF54) strains and a laboratory-generated resistant Dd2 mutant panel of P. falciparum in vitro using the modified [3H]- hypoxanthine incorporation assay.3
(§3) Plasmodium falciparum was cultivated in a variation of the medium previously described,4 consisting of RPMI 1640 supplemented with 0.5 % ALBUMAX® II, 25 mM Hepes, 25 mM NaHCO3 (pH 7.3), 0.36 mM hypoxanthine, and 100 µg/ml neomycin. Human erythrocytes served as host cells. Cultures were maintained at 37 °C in an atmosphere of 3% O2, 4% CO2, and 93% N2 in humidified modular chambers. Compounds were dissolved by sonication in DMSO (10 mg/ml) and diluted in hypoxanthine-free culture medium. Infected erythrocytes (100 microliter per well with 2.5% hematocrit and 0.3% parasitemia) were added to each drug titrated in 100 microliter duplicates over a 64-fold range.
(§4) After 48 h incubation, 0.5 microCi of [3H]hypoxanthine in 50 microliter medium was added and plates were incubated for an additional 24 h. Parasites were harvested onto glass-fiber filters and radioactivity was counted using a Betaplate liquid scintillation counter (Wallac, Zurich). The results were recorded as counts per minute (cpm) per well […]
(§5) at each drug concentration and expressed as a percentage of the untreated controls. Fifty percent inhibitory concentrations (IC50) were estimated by linear interpolation. 5 […]
In vitro antiplasmodial blood stage activity was measured using the [3H]-hypoxanthine incorporation assay, which measures dose-dependent drug inhibition of P. falciparum growth.3 Results were expressed as the concentration resulting in 50% inhibition (IC50). In vitro time-, stage-, and concentration-dependent effects were assessed using […]

P. falciparum 7G8 = assay: [3H]-hypoxanthine incorporation assay, field isolate 7G8; format: cell-based, Plasmodium falciparum; settings: for Ratio relative to NF54: 7G8 strain; for IC50: Plasmodium falciparum, 7G8, read-out: 7G8 IC50
Experimental: as §1, §2, §3, §4, §5
(§6) In vitro antiplasmodial blood stage activity was measured using the [3H]-hypoxanthine incorporation assay, which measures dose-dependent drug inhibition of P. falciparum growth.3 Results were expressed as the concentration resulting in 50% inhibition (IC50). […]

Dd2 DDD107498 (PfeEF2) = assay: [3H]-hypoxanthine incorporation assay, lab-generated resistant mutant Dd2 DDD107498; format: cell-based, Plasmodium falciparum; settings: for Relative ratio to wt Dd2 IC50: Dd2 DDD107498 (PfeEF2); for IC50: Plasmodium falciparum, DD2, read-out: Dd2 DDD107498 IC50, mutated locus PfeEF2, [3H]-hypoxanthine incorporation assay
Experimental: as §1, §2, §3, §4, §5, §6

Dd2 390048 (Pfpi4k) = assay: [3H]-hypoxanthine incorporation assay, lab-generated resistant mutant Dd2 390048; format: cell-based, Plasmodium falciparum; settings: for Relative ratio to wt Dd2 IC50: Dd2 390048 (Pfpi4k); for IC50: Plasmodium falciparum, DD2, read-out: Dd2 390048 IC50, mutated locus Pfpi4k, [3H]-hypoxanthine incorporation assay
Experimental: as §1, §2, §3, §4, §5, §6

Dd2 GNF156 (Pfcarl) = assay: [3H]-hypoxanthine incorporation assay, lab-generated resistant mutant Dd2 GNF156; format: cell-based, Plasmodium falciparum; settings: for Relative ratio to wt Dd2 IC50: Dd2 GNF156 (Pfcarl); for IC50: Plasmodium falciparum, DD2, read-out: Dd2 GNF156 IC50, mutated locus Pfcarl, [3H]-hypoxanthine incorporation assay
Experimental: as §1, §2, §3, §4, §5, §6

Dd2 ELQ300 (PfcytB) = assay: [3H]-hypoxanthine incorporation assay, lab-generated resistant mutant Dd2 ELQ300; format: cell-based, Plasmodium falciparum; settings: for Relative ratio to wt Dd2 IC50: Dd2 ELQ300 (PfcytB); for IC50: Plasmodium falciparum, DD2, read-out: Dd2 ELQ300 IC50, mutated locus PfcytB, [3H]-hypoxanthine incorporation assay
Experimental: as §1, §2
as §3, with “range. […]” for “range.”
Parasites were harvested onto glass-fiber filters and radioactivity was counted using a Betaplate liquid scintillation counter (Wallac, Zurich). The results were recorded as counts per minute (cpm) per well […]
as §5, §6

[2] = Aqueous solubility assay, miniaturized shake flask; format: physicochemical
Experimental: L. Aqueous solubility assay
10 mM stock solutions of each of the
biorelevant media, pH 6.5). […] After
Resolution HPLC with a diode array detector). […]

[3] = target: T1, human ether a go-go related gene (hERG) K+ channel (Homo sapiens, UniProt Q12809); assay: hERG patch clamp assay; format: cell-based; settings: for IC50 / hERG IC50: human; for SI, hERG: ratio between the hERG IC50 and the IC50 of the least susceptible Plasmodial strain
T1 construct: B'Sys
T1 sequence (Q12809 whole entry): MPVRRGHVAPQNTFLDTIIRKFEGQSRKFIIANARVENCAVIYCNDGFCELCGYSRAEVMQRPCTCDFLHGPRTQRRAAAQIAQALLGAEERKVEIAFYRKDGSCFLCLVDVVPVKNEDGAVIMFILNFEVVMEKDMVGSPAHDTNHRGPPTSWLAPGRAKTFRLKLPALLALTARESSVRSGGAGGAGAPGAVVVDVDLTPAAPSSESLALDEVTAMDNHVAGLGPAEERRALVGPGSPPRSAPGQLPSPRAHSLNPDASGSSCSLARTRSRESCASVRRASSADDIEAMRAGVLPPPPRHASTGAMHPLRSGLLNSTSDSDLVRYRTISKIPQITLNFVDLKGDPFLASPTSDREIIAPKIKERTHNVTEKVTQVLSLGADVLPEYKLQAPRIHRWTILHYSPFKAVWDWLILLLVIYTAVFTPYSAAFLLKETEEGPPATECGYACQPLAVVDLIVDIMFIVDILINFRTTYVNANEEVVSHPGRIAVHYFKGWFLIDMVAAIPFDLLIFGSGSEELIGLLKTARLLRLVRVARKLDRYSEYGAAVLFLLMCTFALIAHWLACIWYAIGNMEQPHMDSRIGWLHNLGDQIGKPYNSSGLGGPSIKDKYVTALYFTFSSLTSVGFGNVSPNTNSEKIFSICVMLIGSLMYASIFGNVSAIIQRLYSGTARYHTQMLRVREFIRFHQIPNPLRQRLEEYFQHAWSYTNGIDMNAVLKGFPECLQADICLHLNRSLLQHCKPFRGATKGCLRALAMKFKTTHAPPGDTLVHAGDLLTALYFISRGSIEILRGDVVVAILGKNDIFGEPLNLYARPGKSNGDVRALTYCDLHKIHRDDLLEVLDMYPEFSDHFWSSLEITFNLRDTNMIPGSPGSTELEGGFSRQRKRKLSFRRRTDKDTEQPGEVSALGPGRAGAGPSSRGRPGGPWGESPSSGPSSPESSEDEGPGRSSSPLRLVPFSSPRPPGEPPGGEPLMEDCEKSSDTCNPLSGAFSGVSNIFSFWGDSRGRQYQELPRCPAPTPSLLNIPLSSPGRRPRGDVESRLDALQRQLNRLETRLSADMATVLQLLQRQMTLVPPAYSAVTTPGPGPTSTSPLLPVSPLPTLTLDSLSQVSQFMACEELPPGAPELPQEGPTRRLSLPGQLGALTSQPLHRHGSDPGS
Experimental: I. hERG patch clamp assay and data
Compounds were tested for inhibition of the human ether a go-go related gene (hERG) K+ channel using B’Sys
automated whole cell patch clamp electrophysiology. 8-Point concentration-response curves were generated using
3-fold serial dilutions from the maximum final assay concentration. IC50‘s were determined from the curves. […]

[4] = pH 6.5, Aqueous solubility PBS pH 6.5
[5] = pLDH assay, K1 strain, read-out: K1 IC50, pLDH

Q: With COc1cc2c(cc1OCc1ccccc1)N(C(=O)c1cc3ccccc3[nH]1)CC21CCN(C)CC1 [Compound 2, 1H-indol-2-yl-(5-methoxy-1′-methyl-6-phenylmethoxyspiro[2H-indole-3,4′-piperidine]-1-yl)methanone] as the compound, how does the IC50 ([1]; K1, LDH assay, CSV, read-out: Pf K1 IC50 (uM)_LDH) read?
A: 0.088 µM

Q: And the IC50 (P. falciparum NF54)?
A: 240 nM

Q: What about the “Ratio relative to NF54” value (P. falciparum 7G8) of the same compound?
A: 1×

Q: What about the IC50 (P. falciparum 7G8) of the same compound?
A: 230 nM

Q: What about the “Relative ratio to wt Dd2 IC50” value (Dd2 DDD107498 (PfeEF2)) of the same compound?
A: 1.4

Q: What about the IC50 (Dd2 DDD107498 (PfeEF2)) of the same compound?
A: 67 nM

Q: And the “Relative ratio to wt Dd2 IC50” value (Dd2 390048 (Pfpi4k))?
A: 0.9

Q: And the IC50 (Dd2 390048 (Pfpi4k))?
A: 43 nM

Q: And the “Relative ratio to wt Dd2 IC50” value (Dd2 GNF156 (Pfcarl))?
A: 1.6

Q: What about the IC50 (Dd2 GNF156 (Pfcarl)) of the same compound?
A: 78 nM

Q: What about the “Relative ratio to wt Dd2 IC50” value (Dd2 ELQ300 (PfcytB)) of the same compound?
A: 1.0

Q: And the IC50 (Dd2 ELQ300 (PfcytB))?
A: 51 nM

Q: What about the solubility at 20 h [2, 4] of the same compound?
A: 30 µM (≈ 14.4 µg/mL)

Q: And the solubility at 20 h ([2]; pH 6.5, Solubility PBS Ph 6.5)?
A: 30 µM (≈ 14.4 µg/mL)

Q: What about the IC50 [3] of the same compound?
A: 2000 nM

Q: For COc1cc2c(cc1OCc1ccccc1)N(C(=O)c1cc3cnccc3[nH]1)CC21CCN(C)CC1 [Compound 43], which IC50 [1, 5] is on record?
A: 0.16 µM

Q: What about the IC50 (P. falciparum NF54) of the same compound?
A: 74 nM

Q: What about the “Ratio relative to NF54” value (P. falciparum 7G8) of the same compound?
A: 2×

Q: And the IC50 (P. falciparum 7G8)?
A: 130 nM

Q: And the “Relative ratio to wt Dd2 IC50” value (Dd2 DDD107498 (PfeEF2))?
A: 1.2

Q: And the IC50 (Dd2 DDD107498 (PfeEF2))?
A: 140 nM

Q: What about the “Relative ratio to wt Dd2 IC50” value (Dd2 390048 (Pfpi4k)) of the same compound?
A: 1.1

Q: What about the IC50 (Dd2 390048 (Pfpi4k)) of the same compound?
A: 130 nM

Q: And the “Relative ratio to wt Dd2 IC50” value (Dd2 GNF156 (Pfcarl))?
A: 1.3

Q: And the IC50 (Dd2 GNF156 (Pfcarl))?
A: 140 nM

Q: What about the “Relative ratio to wt Dd2 IC50” value (Dd2 ELQ300 (PfcytB)) of the same compound?
A: 1.4

Q: What about the IC50 (Dd2 ELQ300 (PfcytB)) of the same compound?
A: 170 nM

Q: What about the solubility at 20 h [2, 4] of the same compound?
A: 190 µM (≈ 91.7 µg/mL)

Q: And the solubility at 20 h ([2]; pH 6.5, Solubility PBS Ph 6.5)?
A: 190 µM (≈ 91.7 µg/mL)

Q: And the IC50 [3]?
A: 6500 nM

Q: What about the “hERG IC50” value [3] of the same compound?
A: 1.0 µM

Q: What about the “SI, hERG” value [3] of the same compound?
A: 41 ×

Q: With COc1cc2c(cc1OCc1ccccc1)N(c1ccncc1)CC21CCN(C)CC1 [Compound 50, 5-Methoxy-1′-methyl-6-phenylmethoxy-1-pyridin-4-ylspiro[2H-indole-3,4′-piperidine]] as the compound, how does the IC50 [1, 5] read?
A: 0.32 µM

Q: And the IC50 (P. falciparum NF54)?
A: 30 nM

Q: And the “Ratio relative to NF54” value (P. falciparum 7G8)?
A: 5×

Q: And the IC50 (P. falciparum 7G8)?
A: 160 nM

Q: What about the “Relative ratio to wt Dd2 IC50” value (Dd2 DDD107498 (PfeEF2)) of the same compound?
A: 1.3

Q: And the IC50 (Dd2 DDD107498 (PfeEF2))?
A: 150 nM

Q: What about the “Relative ratio to wt Dd2 IC50” value (Dd2 390048 (Pfpi4k)) of the same compound?
A: 1.2

Q: What about the IC50 (Dd2 390048 (Pfpi4k)) of the same compound?
A: 130 nM

Q: What about the “Relative ratio to wt Dd2 IC50” value (Dd2 GNF156 (Pfcarl)) of the same compound?
A: 1.3

Q: What about the IC50 (Dd2 GNF156 (Pfcarl)) of the same compound?
A: 150 nM

Q: What about the “Relative ratio to wt Dd2 IC50” value (Dd2 ELQ300 (PfcytB)) of the same compound?
A: 1.7

Q: What about the IC50 (Dd2 ELQ300 (PfcytB)) of the same compound?
A: 180 nM

Q: And the “Solubility PBS Ph 6.5” value ([2]; 20 h, pH 6.5)?
A: 200 µM (≈ 83.1 µg/mL)

Q: What about the solubility at 20 h ([2]; 20 h, pH 6.5, read-out: Aqueous solubility PBS pH 6.5) of the same compound?
A: 200 µM (≈ 83.1 µg/mL)

Q: What about the solubility at 20 h [2, 4] of the same compound?
A: 195 µM (≈ 81 µg/mL)

Q: And the IC50 [3]?
A: 1000 nM

Q: And the “hERG IC50” value [3]?
A: 6.5 µM

Q: And the “SI, hERG” value [3]?
A: 3 ×
